Assay results: ChEMBL document CHEMBL1201862, “PubChem BioAssay data set” (2004)
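Step 1: Grow cells in 96-well plates. Step 2: Expose to compound for 48 hours at 5 concentrations. Step 3: Interpolate endpoints linearly; if unreached, use highest concentration. GI50 = concentration required for 50% inhibition of growth.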 Active and inactive are the calls of the source. Cut-off read from the data, not from the text of the source: active = GI50 up to about 1.1 µM and inactive = higher. Square brackets hold non-standard residues; d marks the D form. Peptide text beside a SMILES is read from it. * marks the point of attachment. ξ: configuration not given here. Propanoyl(3-(4-MeO-Ph)) = COc1ccc(CCC(=O)*)cc1; Thr(3ξ) = CC(O)[C@H](N)C(=O)O; dNMeL = CN[C@H](CC(C)C)C(=O)O; ξLac = CC(O)C(=O)O

Assays:
Test in all cases: inhibition of tumour cell growth, NCI panel, 48 h
SK-MEL-28 = test system: SK-MEL-28
HOP-62 = test system: HOP-62
A498 = test system: A498
NCI-H522 = test system: NCI-H522
SF-295 = test system: SF-295
SNB-19 = test system: SNB-19
KM12 = test system: KM12
Malme-3M = test system: Malme-3M
KM-20L2 = test system: KM-20L2
NCI-H226 = test system: NCI-H226
LOX IMVI = test system: LOX IMVI
A549 = test system: A549
SF-268 = test system: SF-268
RXF 393 = test system: RXF 393
SR = test system: SR
HL-60 = test system: HL-60
BT-549 = test system: BT-549
MDA-MB-435 = test system: MDA-MB-435
Hs-578T = test system: Hs-578T
NCI/ADR-RES = test system: NCI/ADR-RES

SMILES	GI50 (SK-MEL-28)	GI50 (HOP-62)	GI50 (A498)	GI50 (NCI-H522)	GI50 (SF-295)	GI50 (SNB-19)	GI50 (KM12)	GI50 (Malme-3M)	GI50 (KM-20L2)	GI50 (NCI-H226)	GI50 (LOX IMVI)	GI50 (A549)	GI50 (SF-268)	GI50 (RXF 393)	GI50 (SR)	GI50 (HL-60)	GI50 (BT-549)	GI50 (MDA-MB-435)	GI50 (Hs-578T)	GI50 (NCI/ADR-RES)
CC(=O)NC(CCCNC(=O)OCc1ccccc1)C(=O)NCc1ccccc1 (configuration not stated)	> 100 µM (inactive)	> 100 µM (inactive)	> 100 µM (inactive)	> 100 µM (inactive)	> 100 µM (inactive)	> 100 µM (inactive)	> 100 µM (inactive)	> 100 µM (inactive)	> 100 µM (inactive)	> 100 µM (inactive)	> 100 µM (inactive)	> 100 µM (inactive)	> 100 µM (inactive)	> 100 µM (inactive)						
CNC(=O)N(CCCC(NC(C)=O)C(=O)NCc1ccccc1)Cc1ccccc1 (configuration not stated)	> 100 µM (inactive)	> 100 µM (inactive)	> 100 µM (inactive)	> 100 µM (inactive)	> 100 µM (inactive)	> 100 µM (inactive)	> 100 µM (inactive)	> 100 µM (inactive)	> 100 µM (inactive)	> 100 µM (inactive)	> 100 µM (inactive)	> 100 µM (inactive)	> 100 µM (inactive)	> 100 µM (inactive)						
CC1(C)CCC(=O)c2c(O)ccc(O)c21	39.8 µM (inactive)			55.8 µM (inactive)	> 100 µM (inactive)	> 100 µM (inactive)	83.9 µM (inactive)	> 100 µM (inactive)	83.4 µM (inactive)	> 100 µM (inactive)		> 100 µM (inactive)	> 100 µM (inactive)	18.4 µM (inactive)	> 10 µM (inactive)					
COc1cc(CC2C(=O)OCC2[C@@H](OC(C)=O)c2ccc3c(c2)OCO3)c(Br)c(OC)c1OC (some centres not stated)	73.3 µM (inactive)	> 100 µM (inactive)		26.5 µM (inactive)	33.1 µM (inactive)	> 100 µM (inactive)	31.5 µM (inactive)	37.9 µM (inactive)	44 µM (inactive)		> 100 µM (inactive)	39.4 µM (inactive)	> 100 µM (inactive)	51.3 µM (inactive)	29.4 µM (inactive)	35.6 µM (inactive)				
Cc1cc(C)cc(C(=N)c2ccccc2Cc2cccc3ccccc23)c1	16.9 µM (inactive)	18 µM (inactive)	27.9 µM (inactive)	7.28 µM (inactive)	11 µM (inactive)	19.5 µM (inactive)	11.4 µM (inactive)	12.8 µM (inactive)		14.6 µM (inactive)	18 µM (inactive)	16 µM (inactive)	15.9 µM (inactive)	17.3 µM (inactive)	14.2 µM (inactive)	13.3 µM (inactive)	37.8 µM (inactive)	17.2 µM (inactive)	3.47 µM (inactive)	20.2 µM (inactive)
COc1ccc(S(=O)(=O)N/N=C(\C)CN2C(=O)c3ccccc3C2=O)cc1OC	> 100 µM (inactive)	> 100 µM (inactive)	> 100 µM (inactive)	> 100 µM (inactive)	> 100 µM (inactive)	> 100 µM (inactive)	> 100 µM (inactive)	> 100 µM (inactive)	> 100 µM (inactive)	> 100 µM (inactive)		> 100 µM (inactive)	> 100 µM (inactive)		> 100 µM (inactive)	> 100 µM (inactive)				
O=S(=O)(N/N=C\c1c2ccccc2[n+]([O-])c2ccccc12)c1ccc(Cl)cc1	> 100 µM (inactive)	80 µM (inactive)	> 100 µM (inactive)	93.8 µM (inactive)	66.4 µM (inactive)	53.3 µM (inactive)	> 100 µM (inactive)	53.1 µM (inactive)	> 100 µM (inactive)	30.3 µM (inactive)	> 100 µM (inactive)	> 100 µM (inactive)	> 100 µM (inactive)			> 100 µM (inactive)				
CCCCCCc1cc2c(C)c(C)c(=O)oc2cc1OCCCOc1cc2oc(=O)c(C)c(C)c2cc1CCCCCC	> 100 µM (inactive)	> 100 µM (inactive)	> 100 µM (inactive)	> 100 µM (inactive)	> 100 µM (inactive)	> 100 µM (inactive)	> 100 µM (inactive)	> 100 µM (inactive)	> 100 µM (inactive)		> 100 µM (inactive)	> 100 µM (inactive)	> 100 µM (inactive)	43.4 µM (inactive)	> 100 µM (inactive)	> 100 µM (inactive)				
N#CC1CCCCC1NC1(C#N)CCCCC1 (configuration not stated)	> 100 µM (inactive)	> 100 µM (inactive)	> 100 µM (inactive)	> 100 µM (inactive)	> 100 µM (inactive)	> 100 µM (inactive)	> 100 µM (inactive)	> 100 µM (inactive)	> 100 µM (inactive)	> 100 µM (inactive)	> 100 µM (inactive)	> 100 µM (inactive)	> 100 µM (inactive)	> 100 µM (inactive)		> 100 µM (inactive)				
Cc1ccc(S(=O)(=O)C(C#N)c2nc3ccccc3nc2N2CCOCC2)cc1 (configuration not stated)	23.4 µM (inactive)	20.5 µM (inactive)	53.7 µM (inactive)	18.7 µM (inactive)		28.6 µM (inactive)	18.3 µM (inactive)	27.5 µM (inactive)	33.4 µM (inactive)	> 100 µM (inactive)	16.6 µM (inactive)	76 µM (inactive)	28.6 µM (inactive)		28.1 µM (inactive)	> 10 µM (inactive)				
N/N=C(\c1nc2ccc(Cl)cc2nc1O)C(O)c1ccc(Cl)c(Cl)c1 (configuration not stated)	> 100 µM (inactive)	> 100 µM (inactive)		> 100 µM (inactive)	> 100 µM (inactive)	> 100 µM (inactive)	70.5 µM (inactive)	> 100 µM (inactive)	> 100 µM (inactive)	> 100 µM (inactive)	> 100 µM (inactive)	> 100 µM (inactive)	> 100 µM (inactive)	> 100 µM (inactive)	> 100 µM (inactive)	> 100 µM (inactive)				
Cc1ccc2nc3c(C(=O)NCCN(C)C)cccc3nc2c1	4.7 µM (inactive)	3.85 µM (inactive)	2.47 µM (inactive)	8.81 µM (inactive)	5.22 µM (inactive)	5.96 µM (inactive)	3.94 µM (inactive)	2.47 µM (inactive)	3.53 µM (inactive)	2.59 µM (inactive)	1.82 µM (inactive)	4.61 µM (inactive)		3.56 µM (inactive)	1.01 µM (active)	5.45 µM (inactive)				
CC1(C)OC(C[C@]2(C#N)C[C@H](CCl)OC(C)(C)O2)C[C@@H](C[C@]2(C#N)C[C@H](CCl)OC(C)(C)O2)O1 (some centres not stated)	> 100 µM (inactive)	> 100 µM (inactive)	> 100 µM (inactive)	> 100 µM (inactive)	> 100 µM (inactive)	> 100 µM (inactive)	> 100 µM (inactive)	> 100 µM (inactive)	> 100 µM (inactive)	> 100 µM (inactive)	> 100 µM (inactive)	> 100 µM (inactive)	> 100 µM (inactive)		20 µM (inactive)	> 100 µM (inactive)				
COC(=O)CC[C@@H](NC(=O)C(C)NC(=O)COC1C(O)C(COC(=O)CCCCCCCCCCNC(=O)c2ccc([N+](=O)[O-])c3[nH]c4cc(Br)ccc4c(=O)c23)OC(OCc2ccccc2)C1NC(C)=O)C(N)=O (some centres not stated)	> 100 µM (inactive)	83.8 µM (inactive)		32.7 µM (inactive)	> 100 µM (inactive)	94 µM (inactive)	> 100 µM (inactive)	> 100 µM (inactive)	> 100 µM (inactive)	25.1 µM (inactive)	44.2 µM (inactive)	> 100 µM (inactive)	57.4 µM (inactive)	56.6 µM (inactive)	42.6 µM (inactive)	23 µM (inactive)				
CC(C)(CN)CN	> 100 µM (inactive)	> 100 µM (inactive)	> 100 µM (inactive)	> 100 µM (inactive)	> 100 µM (inactive)	> 100 µM (inactive)	> 100 µM (inactive)	> 100 µM (inactive)		> 100 µM (inactive)	> 100 µM (inactive)	> 100 µM (inactive)	> 100 µM (inactive)	> 100 µM (inactive)	> 100 µM (inactive)	> 100 µM (inactive)	> 100 µM (inactive)	> 100 µM (inactive)	> 100 µM (inactive)	> 100 µM (inactive)
CSc1ccc2c(cc1=O)[C@@H](NC(=O)c1cc(O)c(O)c(O)c1)CCc1cc(O)c(O)c(O)c1-2	32.3 µM (inactive)	49.5 µM (inactive)	> 100 µM (inactive)	21.4 µM (inactive)	23.7 µM (inactive)	81.3 µM (inactive)	20.9 µM (inactive)	30 µM (inactive)	68.7 µM (inactive)	16 µM (inactive)		27.7 µM (inactive)	37.4 µM (inactive)		18.6 µM (inactive)	16.8 µM (inactive)				
COC(=O)[C@@H](NC(=O)[C@@H](CC(C)C)N(C)C(=O)[C@@H]1CCCN1C(=O)C(C)O)C(C)OC(=O)CCc1ccc(OC)cc1 (some centres not stated) (H-[ξLac]P[dNMeL][Thr(3ξ)](Propanoyl(3-(4-MeO-Ph)))-OMe)	> 100 µM (inactive)	> 100 µM (inactive)	> 100 µM (inactive)	> 100 µM (inactive)	> 100 µM (inactive)	> 100 µM (inactive)	> 100 µM (inactive)	> 100 µM (inactive)		> 100 µM (inactive)	> 100 µM (inactive)	> 100 µM (inactive)	> 100 µM (inactive)	> 100 µM (inactive)	> 100 µM (inactive)	> 100 µM (inactive)	> 100 µM (inactive)	> 100 µM (inactive)	> 100 µM (inactive)	> 100 µM (inactive)
